Assay results reported in patent US4956489A (Bioeurope, priority 1987, dated 1990).
Like-named read-outs stand apart in the source and are kept apart here.

Legend:
solubility in water = assay type: physicochemical; details: in water at 25° C. and pH 6
Excerpt: (§1) The amounts of residual solvent present in the final aqueous phase are removed by extraction with 2 liters of ethyl acetate. […] The aqueous phase is then concentrated by evaporation under vacuo, after which it is lyophilized. The structure of the product was verified by elemental analysis and proton NMR spectroscopy.
(b) The lactyl-L-tyrosine ethyl ester is purified and deesterified according to the procedure described in Example 1 in relation to L-malyl-L-tyrosine ethyl ester, to obtain L-lactyl-L-tyrosine monosodium salt.

[1] = solubility in ethyl acetate; assay type: physicochemical; details: extraction of the aqueous phase with ethyl acetate
Excerpt: as §1

[2] = read-out: solubility in water, equivalent molar

Row | SMILES | solubility (solubility in water; read-out: solubility in water) | solubility (solubility in water; [2]) | solubility in ethyl acetate [1]
1 | C[C@H](O)C(=O)N[C@@H](Cc1ccc(O)cc1)C(=O)[O-].[Na+] | ≥ 330 mg/mL | ≥ 1200 mM | –
2 | O=C([O-])C[C@H](O)C(=O)N[C@@H](Cc1ccc(O)cc1)C(=O)[O-].[Na+].[Na+] [L-malyl-L-tyrosine disodium salt] | 820 mg/mL | 2400 mM | not soluble in ethyl acetate
